In article PMC7889890, “Structure of photosystem I-LHCI-LHCII from the green alga Chlamydomonas reinhardtii in State 2” (Nature Communications, 2021):

T1: PsaL (Chlamydomonas reinhardtii, UniProt A8IL32)
T1 construct: gene CHLRE_12g486300v5; mature PSI core subunit within native PSI-LHCI-LHCII supercomplex purified from state 2 thylakoids
T1 sequence (A8IL32 36-196): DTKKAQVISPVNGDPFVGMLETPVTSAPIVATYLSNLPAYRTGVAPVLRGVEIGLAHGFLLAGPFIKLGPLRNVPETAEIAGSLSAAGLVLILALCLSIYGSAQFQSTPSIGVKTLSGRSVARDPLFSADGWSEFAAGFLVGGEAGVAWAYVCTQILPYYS

T2: PsaH (Chlamydomonas reinhardtii, UniProt P13352)
T2 construct: mature PSI core subunit within native PSI-LHCI-LHCII supercomplex purified from state 2 thylakoids
T2 sequence (P13352 31-130): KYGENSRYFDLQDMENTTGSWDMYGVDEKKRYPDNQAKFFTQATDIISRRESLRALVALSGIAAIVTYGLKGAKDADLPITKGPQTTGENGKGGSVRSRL

T3: PsaD (Chlamydomonas reinhardtii (endogenous …, UniProt Q39615 36-196))
T3 construct: PSI core subunit PsaD of C. reinhardtii; source: endogenous, C. reinhardtii CC-137 cells in state 2; thylakoid membranes solubilised with α-DDM, PSI-LHCI-LHCII purified (sucrose density gradient, gel filtration)
T3 sequence (looked up): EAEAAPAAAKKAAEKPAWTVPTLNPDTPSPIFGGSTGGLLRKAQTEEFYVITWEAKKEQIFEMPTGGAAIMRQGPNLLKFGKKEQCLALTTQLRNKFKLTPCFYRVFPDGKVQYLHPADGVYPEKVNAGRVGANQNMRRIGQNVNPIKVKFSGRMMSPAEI

B1: PsaH (natural protein, UniProt P13352 31-130, looked up)
chain: T2 sequence (P13352 31-130)
notes: PSI core subunit PsaH of C. reinhardtii; also called Cr-PsaH; source: endogenous, C. reinhardtii CC-137 cells in state 2; thylakoid membranes solubilised with α-DDM, PSI-LHCI-LHCII purified (sucrose density gradient, gel filtration)

Key:
PsaA = target: T4, PsaA (Chlamydomonas reinhardtii, UniProt P12154); format: binding; conditions: Bcr850; native supercomplex
T4 construct: PSI core subunit within native PSI-LHCI-LHCII supercomplex purified from state 2 thylakoids

PsaL = target: T1, PsaL; format: binding; conditions: Bcr201, Bcr205, Bcr206; native supercomplex
PsaH = target: T2, PsaH; format: binding; conditions: Bcr204; native supercomplex
PsaD = target: T3, PsaD; experiment: cryo-EM structure; single-particle cryo-EM of the PSI-LHCI-LHCII supercomplex purified from state 2 cells; 3.42 Å overall; 10 mM Hepes-KOH pH 7.5, 50 mM NaCl, 1 mM NaN3, 10 mM NaF, 0.01% α-DDM; conditions: both partners purified

T4 sequence (P12154 whole entry): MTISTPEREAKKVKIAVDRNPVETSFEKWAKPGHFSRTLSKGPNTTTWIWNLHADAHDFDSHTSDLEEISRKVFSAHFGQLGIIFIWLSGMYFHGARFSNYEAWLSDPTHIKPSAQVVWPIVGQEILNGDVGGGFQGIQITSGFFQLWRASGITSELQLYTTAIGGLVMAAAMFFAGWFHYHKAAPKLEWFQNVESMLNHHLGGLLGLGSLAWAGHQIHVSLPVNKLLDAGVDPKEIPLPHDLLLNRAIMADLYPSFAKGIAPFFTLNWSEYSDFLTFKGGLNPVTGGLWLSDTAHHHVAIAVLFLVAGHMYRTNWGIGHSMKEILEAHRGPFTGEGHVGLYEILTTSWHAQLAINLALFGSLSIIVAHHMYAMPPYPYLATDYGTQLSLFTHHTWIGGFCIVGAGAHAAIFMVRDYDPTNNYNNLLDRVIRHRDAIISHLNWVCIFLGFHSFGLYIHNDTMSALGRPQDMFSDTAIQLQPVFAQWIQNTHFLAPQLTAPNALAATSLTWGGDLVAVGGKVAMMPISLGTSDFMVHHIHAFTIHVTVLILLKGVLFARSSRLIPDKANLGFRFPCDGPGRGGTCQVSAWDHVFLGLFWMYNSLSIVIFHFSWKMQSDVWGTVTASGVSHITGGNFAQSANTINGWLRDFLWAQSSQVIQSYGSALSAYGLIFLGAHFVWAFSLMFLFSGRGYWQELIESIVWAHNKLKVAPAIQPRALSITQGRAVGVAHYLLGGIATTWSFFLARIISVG

Row | Molecule | cryo-EM structure, 3.42 Å (PsaA) | cryo-EM structure, 3.42 Å (PsaL) | cryo-EM structure, 3.42 Å (PsaH) | binding result (PsaD)
1 | CC1=C(/C=C/C(C)=C/C=C/C(C)=C/C=C/C=C(C)/C=C/C=C(C)/C=C/C2=C(C)CCCC2(C)C)C(C)(C)CCC1 [BCR] | Bcr850 of PsaA interacts with helix A of PsaO | three BCRs (Bcr201, Bcr205 and Bcr206) were observed in the green algal PsaL | one BCR (Bcr204) were found to bind to PsaH in the present structure | 
2 | B1 |  |  |  | binds
